Values after ≈ are worked out from the molar mass of the structure shown. Marks after values point to notes of the source that are not given here. Square brackets hold non-standard residues; d marks the D form. Ends that are not written are not given here. Peptide text beside a SMILES is read from it.
Legend:
Assay type in all cases: cell-based
[1] = tested on: clinical Salmonella isolates; assay: MBC, drop plate method, and MBC/MIC mode of action; settings: for GM of MBC: geometric mean over 12 clinical Salmonella isolates; for MBC: drop plate on MHA from MIC plate, 37 °C, 18 h, thrice
Protocol: (§1) All 12 isolates of Salmonella used in this study were clinical isolates and anonymous left-overs from laboratory diagnoses. They were maintained in a 20% glycerol (Sigma-Aldrich) stock at −80 °C and further cultured on Mueller-Hinton agar (MHA, Oxoid, Hampshire, UK) at 37 °C for 18 h to obtain single colonies for antimicrobial assays. This study was approved by the Ethics Committee of the Faculty of Tropical Medicine (Mahidol University, Bangkok, Thailand; MUTM-EXMPT 2017-007).
The plate derived from the MIC assay was immediately tested for the MBC using a drop plate method. A volume of 10 µL of the culture from individual wells at MIC, 2MIC, and 4MIC was dropped on MHA plates. […] The experiment was thrice performed.
In order to determine whether the peptides have bacteriostatic or bactericidal activity, a ratio of MBC to MIC (MBC/MIC) was applied. The ratio >4 was indicative of bacteriostatic peptide, and ≤4 was inferred as bactericidal peptide.

[2] = tested on: clinical Salmonella isolates; assay: MIC, broth microdilution; settings: for MIC: MHB, 5 × 10^5 CFU/mL, 37 °C, 18 h, duplicate
Protocol: as §1
MIC was determined using the broth microdilution method described by Hancock with some modifications. Briefly, bacterial colonies grown from the MHA were prepared in MHB (Oxoid) as a 0.5 McFarland suspension (which is equal to 1 × 10^8 CFU/mL), and was further 200-fold diluted by the MHB (5 × 10^5 CFU/mL). The bacterial suspension (50 µL) was mixed with 2-fold serial dilutions of peptide (5.5 µL) achieving final concentrations of 256 to 1 µM using a round-bottom polypropylene (PP) 96-well plate (Greiner Bio-One). The plate was incubated at 37 °C for 18 h including incubating peptide free-bacteria as positive growth control, and MHB as negative growth control. After the incubation, the lowest concentration with no visible growth was defined as a MIC value. The assay was performed in a duplicate manner.

sheep red blood cells = assay: Hemolytic activity assay; settings: for HC50 (hemolytic concentration 50): concentration inducing 50% hemolysis of sRBCs, nonlinear regression, unit (µM); for percent hemolysis: 2% sRBCs in PBS, 37 °C, 1 h, OD540, triplicate mean; for concentration required for the initiation of hemolysis: sRBCs, 60 min, 256–1 µM tested
Protocol: The peptide toxicity to the mammalian system was screened based on the hemolytic test by measuring the hemoglobin released from ruptured red blood cells (RBCs). In this study, sheep RBCs (sRBCs) were employed. They were thrice washed and prepared as a suspension in phosphate-buffered saline (PBS, Oxoid). A suspension of 2% sRBCs was incubated with 2-fold serial dilutions of peptide (final concentrations; 256 to 1 µM in a total volume of 200 µL) at 37 °C for 1 h. The solutions of 0.1% (final concentration) Triton X-100 (Sigma-Aldrich) and PBS containing the peptide solvent were used instead of the peptides as the controls of hemolysis at 100% and 0%, respectively. Thereafter, the post-incubated suspensions were centrifuged (1000× g, 3 min) to pelletize residual sRBCs. The supernatants were then transferred into a flat-bottom PS 96-well plate and were measured the absorbance at 540 nm (OD540) by a microplate reader. The test was conducted in triplicate and the mean OD540 was used to calculate the hemolysis (%) as; ((OD540 (peptide) − OD540 (PBS + peptide solvent))/(OD540 (0.1% Triton X-100) − OD540 (PBS + peptide solvent))) × 100. The hemolytic concentration 50 (HC50), a concentration inducing 50% hemolysis, was determined.
The GraphPad Prism version 7.00 (GraphPad Software, La Jolla, CA, USA) was applied for all statistical analyses and data visualizations. Replicate quantitative results were calculated and shown as mean ± SD, unless otherwise specified. The HC50 values were determined using nonlinear regression analysis. The paired t-test and repeated measures one-way ANOVA with Tukey’s multiple comparison test were applied to compare between 2 groups and among 3 or more groups, respectively. The comparisons were considered as a statistically significant difference when a p-value < 0.05.

[3] = isolate 5 (Enteritidis, blood; resistant AMP, SXT, KZ)
[4] = isolate 7 (Typhimurium, blood; resistant AMP, CN, TE, NA, SXT)
[5] = isolate 11 (I 1,4:i:-, blood; resistant AMP, TE, NA, SXT, C)
[6] = isolate 18 (Stanley, urine; resistant TE, SXT, C)
[7] = isolate 26 (Typhimurium, urine; resistant TZP, TE, NA)
[8] = isolate 27 (Typhimurium, stool; resistant AMP, TE, NA, SXT, CIP)
[9] = isolate 55 (Typhimurium, blood; resistant AMP, SXT, C, TE)
[10] = isolate 61 (Enteritidis, blood; resistant AMP, TE, NA, SXT)
[11] = isolate 69 (Typhimurium, stool; resistant AMP)
[12] = isolate 76 (Enteritidis, CSF; resistant NA)
[13] = isolate 78 (Enteritidis, blood; resistant TE, CIP, NA, SXT)
[14] = isolate 107 (Typhimurium, stool; susceptible)

Question: Which results are given for CC[C@@H](C)[C@@H](NC(=O)[C@H](N)Cc1ccccc1)C(=O)N[C@H](CCCNC(=N)N)C(=O)N[C@H](CCCNC(=N)N)C(=O)N[C@@H](C(=O)N[C@H](C)C(=O)N[C@H](CCCNC(=N)N)C(=O)N[C@H](CC(C)C)C(=O)N[C@H](CC(C)C)C(=O)N[C@H](CCCNC(=N)N)C(=O)N[C@H](CCCNC(=N)N)C(=O)N[C@@H](C(=O)N[C@H](Cc1ccccc1)C(N)=O)[C@H](C)CC)[C@H](C)CC [dKn2-5R-NH2] (H-[dF][dI][dR][dR][dI][dA][dR][dL][dL][dR][dR][dI][dF]-NH2)?
Answer: GM of MBC [1]: 5.99 µM; MBC ([1]; isolate 5 (Enteritidis)): 8 µM (≈ 13.8 µg/mL); MBC ([1]; isolate 7 (Typhimurium)): 8 µM (≈ 13.8 µg/mL); MBC ([1]; isolate 11 (I 1,4:i:-)): 8 µM (≈ 13.8 µg/mL); MBC ([1]; isolate 18 (Stanley)): 8 µM (≈ 13.8 µg/mL); MBC ([1]; isolate 26 (Typhimurium)): 8 µM (≈ 13.8 µg/mL); MBC ([1]; isolate 27 (Typhimurium)): 4 µM (≈ 6.92 µg/mL); MBC ([1]; isolate 55 (Typhimurium)): 4 µM (≈ 6.92 µg/mL); MBC ([1]; isolate 61 (Enteritidis)): 4 µM (≈ 6.92 µg/mL); MBC ([1]; isolate 69 (Typhimurium)): 4 µM (≈ 6.92 µg/mL); MBC ([1]; isolate 76 (Enteritidis)): 8 µM (≈ 13.8 µg/mL); MBC ([1]; isolate 78 (Enteritidis)): 8 µM (≈ 13.8 µg/mL); MBC ([1]; isolate 107 (Typhimurium)): 4 µM (≈ 6.92 µg/mL); MIC [2, 3]: 8 µM (≈ 13.8 µg/mL); MIC [2, 4]: 8 µM (≈ 13.8 µg/mL); MIC [2, 5]: 8 µM (≈ 13.8 µg/mL); MIC [2, 6]: 8 µM (≈ 13.8 µg/mL); MIC [2, 7]: 8 µM (≈ 13.8 µg/mL); MIC [2, 8]: 4 µM (≈ 6.92 µg/mL); MIC [2, 9]: 4 µM (≈ 6.92 µg/mL); MIC [2, 10]: 4 µM (≈ 6.92 µg/mL); MIC [2, 11]: 4 µM (≈ 6.92 µg/mL); MIC [2, 12]: 8 µM (≈ 13.8 µg/mL); MIC [2, 13]: 8 µM (≈ 13.8 µg/mL); MIC [2, 14]: 4 µM (≈ 6.92 µg/mL); HC50 (hemolytic concentration 50) (sheep red blood cells): 199.20 µM; percent hemolysis (sheep red blood cells; peptide 1 µM): 0%; percent hemolysis (sheep red blood cells; peptide 2 µM): 0%; percent hemolysis (sheep red blood cells; peptide 4 µM): 0.4 * %; percent hemolysis (sheep red blood cells; peptide 8 µM): 0.5 * %; percent hemolysis (sheep red blood cells; peptide 16 µM): 0.9%; percent hemolysis (sheep red blood cells; peptide 32 µM): 2.5%; percent hemolysis (sheep red blood cells; peptide 64 µM): 8.7%; percent hemolysis (sheep red blood cells; peptide 128 µM): 23.6%; percent hemolysis (sheep red blood cells; peptide 256 µM): 65.6%; concentration required for the initiation of hemolysis (sheep red blood cells): 4000 nM

Question: Which GM of MBC [1] does the source give for FFFIRRIARLLRRIF-NH2 [2F-Kn2-5R-NH2] here?
Answer: 5.66 µM

Question: What about the MBC ([1]; isolate 5 (Enteritidis)) of the same compound?
Answer: 4 µM

Question: And the MBC ([1]; isolate 7 (Typhimurium))?
Answer: 4 µM

Question: And the MBC ([1]; isolate 11 (I 1,4:i:-))?
Answer: 4 µM

Question: And the MBC ([1]; isolate 18 (Stanley))?
Answer: 8 µM

Question: And the MBC ([1]; isolate 26 (Typhimurium))?
Answer: 8 µM

Question: What about the MBC ([1]; isolate 27 (Typhimurium)) of the same compound?
Answer: 8 µM

Question: And the MBC ([1]; isolate 55 (Typhimurium))?
Answer: 8 µM

Question: What about the MBC ([1]; isolate 61 (Enteritidis)) of the same compound?
Answer: 4 µM

Question: What about the MBC ([1]; isolate 69 (Typhimurium)) of the same compound?
Answer: 4 µM

Question: And the MBC ([1]; isolate 76 (Enteritidis))?
Answer: 8 µM

Question: And the MBC ([1]; isolate 78 (Enteritidis))?
Answer: 8 µM

Question: And the MBC ([1]; isolate 107 (Typhimurium))?
Answer: 4 µM

Question: And the MIC [2, 3]?
Answer: 4 µM

Question: What about the MIC [2, 4] of the same compound?
Answer: 4 µM

Question: What about the MIC [2, 5] of the same compound?
Answer: 4 µM

Question: What about the MIC [2, 6] of the same compound?
Answer: 8 µM

Question: What about the MIC [2, 7] of the same compound?
Answer: 8 µM

Question: What about the MIC [2, 8] of the same compound?
Answer: 8 µM

Question: What about the MIC [2, 9] of the same compound?
Answer: 8 µM

Question: And the MIC [2, 10]?
Answer: 4 µM

Question: What about the MIC [2, 11] of the same compound?
Answer: 4 µM

Question: What about the MIC [2, 12] of the same compound?
Answer: 8 µM

Question: And the MIC [2, 13]?
Answer: 8 µM

Question: And the MIC [2, 14]?
Answer: 4 µM

Question: What about the “HC50 (hemolytic concentration 50)” value (sheep red blood cells) of the same compound?
Answer: 5.60 µM

Question: And the percent hemolysis (sheep red blood cells; peptide 1 µM)?
Answer: 6.1%

Question: What about the percent hemolysis (sheep red blood cells; peptide 2 µM) of the same compound?
Answer: 15%

Question: What about the percent hemolysis (sheep red blood cells; peptide 4 µM) of the same compound?
Answer: 33.7 * %

Question: What about the percent hemolysis (sheep red blood cells; peptide 8 µM) of the same compound?
Answer: 61.6 * %

Question: And the percent hemolysis (sheep red blood cells; peptide 16 µM)?
Answer: 96.2%

Question: And the percent hemolysis (sheep red blood cells; peptide 32 µM)?
Answer: 97.6%

Question: And the percent hemolysis (sheep red blood cells; peptide 64 µM)?
Answer: 97.9%

Question: And the percent hemolysis (sheep red blood cells; peptide 128 µM)?
Answer: 99.8%

Question: And the percent hemolysis (sheep red blood cells; peptide 256 µM)?
Answer: 100%

Question: What about the “concentration required for the initiation of hemolysis” value (sheep red blood cells) of the same compound?
Answer: 1000 nM

Question: For “FIGAIARLLSK [BmKn-22, reference compound]”, which MIC [2, 3] is on record?
Answer: > 256 µM

Question: And the MIC [2, 4]?
Answer: > 256 µM

Question: What about the MIC [2, 9] of the same compound?
Answer: > 256 µM

Question: And the MIC [2, 10]?
Answer: > 256 µM

Question: And the MIC [2, 11]?
Answer: > 256 µM

Question: And the MIC [2, 12]?
Answer: > 256 µM

Question: What about the MIC [2, 13] of the same compound?
Answer: > 256 µM

Question: And the MIC [2, 14]?
Answer: > 256 µM

Question: What does the source list for “FIGAIARLLSKIF [BmKn-2, reference compound]”?
Answer: MIC values, range over isolates ([2]; eight clinical Salmonella isolates, peptide 256–1 µM tested): 64 to 256 µM; MIC [2, 3]: 128 µM; MIC [2, 4]: 128 µM; MIC [2, 9]: 256 µM; MIC [2, 10]: 256 µM; MIC [2, 11]: 256 µM; MIC [2, 12]: 64 µM; MIC [2, 13]: 128 µM; MIC [2, 14]: 64 µM

Question: Which results are given for FPSFLVGR [Pug-4, reference compound]?
Answer: MIC [2, 3]: > 256 µM; MIC [2, 4]: > 256 µM; MIC [2, 9]: > 256 µM; MIC [2, 10]: > 256 µM; MIC [2, 11]: > 256 µM; MIC [2, 12]: > 256 µM; MIC [2, 13]: > 256 µM; MIC [2, 14]: > 256 µM

Question: Which results are given for KLKLLLLLKL [KLK1, reference compound]?
Answer: MIC [2, 3]: > 256 µM; MIC [2, 4]: > 256 µM; MIC [2, 9]: > 256 µM; MIC [2, 10]: > 256 µM; MIC [2, 11]: > 256 µM; MIC [2, 12]: > 256 µM; MIC [2, 13]: > 256 µM; MIC [2, 14]: > 256 µM

Question: What does the source list for “KLKLLLLLKLK-NH2 [KLK, reference compound]”?
Answer: MIC [2, 3]: > 256 µM; MIC [2, 4]: > 256 µM; MIC [2, 9]: > 256 µM; MIC [2, 10]: > 256 µM; MIC [2, 11]: > 256 µM; MIC [2, 12]: > 256 µM; MIC [2, 13]: > 256 µM; MIC [2, 14]: > 256 µM

Question: What does the source list for “LLKLFFPFLETGE [Pug-1, reference compound]”?
Answer: MIC [2, 3]: > 256 µM; MIC [2, 4]: > 256 µM; MIC [2, 9]: > 256 µM; MIC [2, 10]: > 256 µM; MIC [2, 11]: > 256 µM; MIC [2, 12]: > 256 µM; MIC [2, 13]: > 256 µM; MIC [2, 14]: > 256 µM
